This test addresses (α4)2(β2)3 nAChR (A2B3, high affinity) (Rattus norvegicus, UniProt P09483+P12390, P09483:H144V/P09483:Q152F/P09483:T154L). As to the kind of experiment: two-electrode voltage clamp, Xenopus oocytes, agonist dose-response. Type of test: cell-based. The conditions noted are these: -60 mV, ND96 Ca2+ free, pH 7.5.

(α4)2(β2)3 nAChR (A2B3, high affinity), sequence (P12390 25-500): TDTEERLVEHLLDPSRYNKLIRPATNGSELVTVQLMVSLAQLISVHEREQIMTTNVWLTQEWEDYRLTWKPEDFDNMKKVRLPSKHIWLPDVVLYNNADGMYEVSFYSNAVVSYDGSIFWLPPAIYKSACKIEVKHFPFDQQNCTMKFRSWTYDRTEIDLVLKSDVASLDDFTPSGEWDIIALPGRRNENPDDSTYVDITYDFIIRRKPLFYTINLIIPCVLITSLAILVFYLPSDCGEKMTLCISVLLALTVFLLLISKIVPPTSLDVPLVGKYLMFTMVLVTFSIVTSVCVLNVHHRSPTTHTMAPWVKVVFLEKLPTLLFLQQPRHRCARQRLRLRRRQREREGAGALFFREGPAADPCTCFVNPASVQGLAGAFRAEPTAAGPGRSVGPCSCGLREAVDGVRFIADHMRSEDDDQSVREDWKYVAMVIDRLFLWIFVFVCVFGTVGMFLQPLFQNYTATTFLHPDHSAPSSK
(α4)2(β2)3 nAChR (A2B3, high affinity), sequence (P09483 31-630 H144V/Q152F/T154L): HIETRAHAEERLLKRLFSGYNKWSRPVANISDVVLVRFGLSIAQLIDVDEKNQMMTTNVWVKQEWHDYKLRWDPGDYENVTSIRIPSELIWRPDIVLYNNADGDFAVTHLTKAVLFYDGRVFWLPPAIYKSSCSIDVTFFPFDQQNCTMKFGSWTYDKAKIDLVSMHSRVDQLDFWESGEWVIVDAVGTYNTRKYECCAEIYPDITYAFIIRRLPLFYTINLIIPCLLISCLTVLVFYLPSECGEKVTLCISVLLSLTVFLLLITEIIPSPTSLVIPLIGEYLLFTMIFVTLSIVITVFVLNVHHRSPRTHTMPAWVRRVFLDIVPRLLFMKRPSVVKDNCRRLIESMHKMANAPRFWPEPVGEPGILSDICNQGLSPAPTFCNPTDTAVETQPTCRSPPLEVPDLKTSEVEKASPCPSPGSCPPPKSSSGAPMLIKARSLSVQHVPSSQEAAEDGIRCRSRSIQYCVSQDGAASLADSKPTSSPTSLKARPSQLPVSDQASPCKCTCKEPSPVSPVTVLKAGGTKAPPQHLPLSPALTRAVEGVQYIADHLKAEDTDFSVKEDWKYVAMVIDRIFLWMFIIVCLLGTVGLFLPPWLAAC

One may read the EC50 as the concentration needed to bring the measured effect to its halfway point. Low readings indicate higher potency in that assay, high ones lower potency in that assay. As to `OCCCCC#Cc1cncc(OC[C@@H]2CCN2)c1` [sazetidine-A], the half-maximal effective concentration (EC50) came out at 4.8 ± 0.3 nM.

The values above are taken from paper PMC4033646 (ACS Chemical Biology, 2014).
